Data reported in ChEMBL document CHEMBL3608236, “Understanding the chemistry behind the antioxidant activities of butylated hydroxytoluene (BHT): a review” (Eur J Med Chem, 2015).
Converted amounts (≈) assume the structure as drawn.

assay: Antioxidant activity assessed as hydrogen peroxide scavenging activity; type: physicochemical

Point of comparison: `O=[N+]([O-])c1cccc(/C=N/n2c(S)nnc2-c2ccc(O)cc2)c1`, IC50 38 µg/mL (≈ 111 µM). Against it:
- O=[N+]([O-])c1ccccc1/C=N/n1c(S)nnc1-c1ccc(O)cc1 — within 1.5-fold, 32 µg/mL (≈ 93.7 µM)
- Oc1ccc(-c2nnc(S)n2/N=C/c2ccccc2)cc1 — 1.6-fold lower, 24 µg/mL (≈ 81 µM)
- Oc1ccc(-c2nnc(S)n2/N=C/c2cccc(O)c2)cc1 — 1.9-fold lower, 20 µg/mL (≈ 64 µM)
- Oc1ccc(-c2nnc(S)n2/N=C/c2ccccc2Cl)cc1 — 1.6-fold higher, 60 µg/mL (≈ 181 µM)
